# Data taken from PubChem BioAssay AID248 (DTP/NCI, 2004).
# “And” between values parts separate entries of the source, which are not always exact repeats. Identical values can stand only once. Toxic doses and inconclusive results are not listed.
# System: L1210 leukemia ip in BDF1 mice, survival T/C
# Assay: NCI In Vivo Anticancer Drug Screen. Data for tumor model L1210 Leukemia (intraperitoneal) in B6D2F1 (BDF1) mice
# Conditions: endpoint: mean survival time, higher = longer survival
# Outline: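 Antitumor effect is assessed in tumor-bearing animals. Survival in the compound arm is compared with a vehicle-dosed control arm and expressed as their quotient.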
# [1] = dose: 50.0 mg/kg/injection, schedule: Q01DX001 (ip), vehicle: carboxymethylcellulose (CMC)
# [2] = dose: 100.0 mg/kg/injection, schedule: Q01DX001 (ip), vehicle: carboxymethylcellulose (CMC)
# [3] = dose: 200.0 mg/kg/injection, schedule: Q01DX001 (ip), vehicle: carboxymethylcellulose (CMC)
# [4] = dose: 50.0 mg/kg/injection, schedule: Q01DX009 (ip), vehicle: saline with Tween-80
# [5] = dose: 100.0 mg/kg/injection, schedule: Q01DX009 (ip), vehicle: Klucel (hydroxypropylcellulose) (HPC)
# [6] = dose: 100.0 mg/kg/injection, schedule: Q01DX009 (ip), vehicle: saline with Tween-80
# [7] = dose: 100.0 mg/kg/injection, schedule: Q04DX002 (ip), vehicle: Klucel (hydroxypropylcellulose) (HPC)
# [8] = dose: 200.0 mg/kg/injection, schedule: Q01DX009 (ip), vehicle: Klucel (hydroxypropylcellulose) (HPC)
# [9] = dose: 200.0 mg/kg/injection, schedule: Q04DX002 (ip), vehicle: Klucel (hydroxypropylcellulose) (HPC)
# [10] = dose: 400.0 mg/kg/injection, schedule: Q01DX009 (ip), vehicle: Klucel (hydroxypropylcellulose) (HPC)
# [11] = dose: 100.0 mg/kg/injection, schedule: Q04DX003 (ip), vehicle: saline with Tween-80
# [12] = dose: 200.0 mg/kg/injection, schedule: Q04DX003 (ip), vehicle: saline with Tween-80
# [13] = dose: 100.0 mg/kg/injection, schedule: Q04DX003 (ip), vehicle: Klucel (hydroxypropylcellulose) (HPC)
# [14] = dose: 200.0 mg/kg/injection, schedule: Q04DX003 (ip), vehicle: Klucel (hydroxypropylcellulose) (HPC)
# [15] = dose: 400.0 mg/kg/injection, schedule: Q04DX003 (ip), vehicle: Klucel (hydroxypropylcellulose) (HPC)
compound,measurement,setting,value
CN(C)c1ccc(N=C2C(c3ccccc3)=CC(c3ccccc3)=C2c2ccccc2)cc1,T/C,[1],89 % of control
same,T/C,[2],91 % of control
same,T/C,[3],94 % of control
same,T/C,"dose: 400.0 mg/kg/injection, schedule: Q01DX001 (ip), vehicle: carboxymethylcellulose (CMC)",97 % of control
CC1=C2CCC(C)C23C2C(=O)OC(=O)C2C1C1C(=O)OC(=O)C13 (stereo unspecified),T/C,"dose: 12.5 mg/kg/injection, schedule: Q01DX009 (ip), vehicle: saline",107 % of control
same,T/C,"dose: 25.0 mg/kg/injection, schedule: Q01DX009 (ip), vehicle: saline",102 % of control
same,T/C,"dose: 50.0 mg/kg/injection, schedule: Q01DX009 (ip), vehicle: saline",103 % of control
O=C1CC(=P(c2ccccc2)(c2ccccc2)c2ccccc2)C(=O)N1c1ccccc1,T/C,[4],100 % of control
same,T/C,[5],94 % of control
same,T/C,[6],100 % of control
same,T/C,[7],106 % of control
same,T/C,[8],102 % of control
same,T/C,"dose: 200.0 mg/kg/injection, schedule: Q01DX009 (ip), vehicle: saline with Tween-80",100 % of control
same,T/C,[9],109 % of control
same,T/C,[10],94 % of control
same,T/C,"dose: 400.0 mg/kg/injection, schedule: Q04DX002 (ip), vehicle: Klucel (hydroxypropylcellulose) (HPC)",98 % of control
CC(=O)Nc1ccc(/C=N/Nc2c([N+](=O)[O-])cc(C)cc2[N+](=O)[O-])cc1,T/C,"dose: 100.0 mg/kg/injection, schedule: Q01DX009 (ip), vehicle: saline",98 % of control
same,T/C,"dose: 200.0 mg/kg/injection, schedule: Q01DX009 (ip), vehicle: saline",96 % of control
same,T/C,"dose: 400.0 mg/kg/injection, schedule: Q01DX009 (ip), vehicle: saline",94 % of control
N#CC(C#N)=C1CCCc2sccc21,T/C,"dose: 100.0 mg/kg/injection, schedule: Q01DX001 (ip), vehicle: saline",90 % of control
same,T/C,"dose: 200.0 mg/kg/injection, schedule: Q01DX001 (ip), vehicle: saline",95 % of control
same,T/C,"dose: 400.0 mg/kg/injection, schedule: Q01DX001 (ip), vehicle: saline",92 % of control
CCCCCCCCNCCOC(=O)c1ccc(N(CC)CC)cc1,T/C,"dose: 75.0 mg/kg/injection, schedule: Q01DX001 (ip), vehicle: carboxymethylcellulose (CMC)",91 % of control
same,T/C,"dose: 150.0 mg/kg/injection, schedule: Q01DX001 (ip), vehicle: carboxymethylcellulose (CMC)",97 % of control
CCC(=O)/C(=C\c1ccccc1Cl)C(C)=O,T/C,[11],111 % of control
same,T/C,[12],117 % of control
same,T/C,"dose: 400.0 mg/kg/injection, schedule: Q04DX003 (ip), vehicle: saline with Tween-80",93 % of control
N=C(N)SC1c2ccccc2-c2cc([N+](=O)[O-])ccc21 (stereo unspecified),T/C,"dose: 100.0 mg/kg/injection, schedule: Q01DX005 (ip), vehicle: Klucel (hydroxypropylcellulose) (HPC)",105 % of control
same,T/C,[7],101 % of control
same,T/C,"dose: 200.0 mg/kg/injection, schedule: Q01DX005 (ip), vehicle: Klucel (hydroxypropylcellulose) (HPC)",98 % of control
same,T/C,[9],114 % of control
O=[N+]([O-])/C=C/c1ccc2ccccc2n1,T/C,"dose: 6.25 mg/kg/injection, schedule: Q01DX009 (ip), vehicle: saline with Tween-80",97 % of control
same,T/C,"dose: 12.5 mg/kg/injection, schedule: Q01DX009 (ip), vehicle: saline with Tween-80",97 % of control
same,T/C,[4],87 % of control
same,T/C,[11],93 % of control
same,T/C,[12],95 % of control
CS(=O)(=O)OCC1CCCCO1 (stereo unspecified),T/C,[5],91 % of control
same,T/C,[13],101 % of control
same,T/C,[8],102 % of control
same,T/C,[14],102 % of control
same,T/C,[10],106 % of control
same,T/C,[15],111 % of control
[O-][P+](=NC12CC3CC(CC(C3)C1)C2)c1ccccc1 (stereo unspecified),T/C,"dose: 75.0 mg/kg/injection, schedule: Q04DX003 (ip), vehicle: Klucel (hydroxypropylcellulose) (HPC)",99 % of control
same,T/C,"dose: 150.0 mg/kg/injection, schedule: Q04DX003 (ip), vehicle: Klucel (hydroxypropylcellulose) (HPC)",101 % of control
same,T/C,"dose: 300.0 mg/kg/injection, schedule: Q04DX003 (ip), vehicle: Klucel (hydroxypropylcellulose) (HPC)",100 % of control
S=C(Nc1ccc(C2=NCCN2)cc1)c1ccc(C(=S)Nc2ccc(C3=NCCN3)cc2)cc1,T/C,"dose: 1.0 mg/kg/injection, schedule: Q01DX Z (ip), vehicle: saline",108 % of control
same,T/C,"dose: 2.0 mg/kg/injection, schedule: Q01DX Z (ip), vehicle: saline",108 % of control
same,T/C,"dose: 4.0 mg/kg/injection, schedule: Q01DX Z (ip), vehicle: saline",124 % of control
same,T/C,"dose: 15.0 mg/kg/injection, schedule: Q01DX Z (ip), vehicle: carboxymethylcellulose (CMC)",219 % of control
same,T/C,"dose: 30.0 mg/kg/injection, schedule: Q01DX Z (ip), vehicle: carboxymethylcellulose (CMC)",182 % of control
same,T/C,"dose: 30.0 mg/kg/injection, schedule: Q01DX Z (oral), vehicle: saline",103 % of control
same,T/C,"dose: 60.0 mg/kg/injection, schedule: Q01DX Z (ip), vehicle: carboxymethylcellulose (CMC)",171 % of control
same,T/C,"dose: 60.0 mg/kg/injection, schedule: Q01DX Z (oral), vehicle: saline",101 % of control
same,T/C,"dose: 120.0 mg/kg/injection, schedule: Q01DX Z (oral), vehicle: saline",98 % of control
same,T/C,"dose: 240.0 mg/kg/injection, schedule: Q01DX Z (oral), vehicle: saline",101 % of control
same,T/C,"dose: 480.0 mg/kg/injection, schedule: Q01DX Z (oral), vehicle: saline",101 % of control
same,T/C,"dose: 960.0 mg/kg/injection, schedule: Q01DX Z (oral), vehicle: saline",101 % of control
S=C1SC2CCCCC2S1 (stereo unspecified),T/C,"dose: 25.0 mg/kg/injection, schedule: Q04DX002 (ip), vehicle: Klucel (hydroxypropylcellulose) (HPC)",100 % of control
same,T/C,"dose: 50.0 mg/kg/injection, schedule: Q04DX002 (ip), vehicle: Klucel (hydroxypropylcellulose) (HPC)",106 % of control
same,T/C,[7],95 % of control
same,T/C,[13],103 % of control
same,T/C,[14],94 % of control
same,T/C,[15],103 % of control
CC1SC(N)=NC1=O (stereo unspecified),T/C,[5],94 % of control
same,T/C,"dose: 100.0 mg/kg/injection, schedule: Q04DX003 (ip), vehicle: saline",108 % of control
same,T/C,[8],100 % of control
same,T/C,"dose: 200.0 mg/kg/injection, schedule: Q04DX003 (ip), vehicle: saline",103 % of control
same,T/C,[10],100 % of control
same,T/C,"dose: 400.0 mg/kg/injection, schedule: Q04DX003 (ip), vehicle: saline",93 % of control
OC(c1cc(-c2cccc(Cl)c2)nc2ccccc12)C1CCCCN1 (stereo unspecified),T/C,[1],92 % of control
same,T/C,[2],90 % of control
same,T/C,[3],95 % of control
NC(N)=NCCCC(NC(=O)OCc1ccccc1)C(=O)O (stereo unspecified),T/C,[5],106 % of control and 94 % of control
same,T/C,[13],94 % of control and 97 % of control
same,T/C,[8],109 % of control and 91 % of control
same,T/C,[14],86 % of control and 99 % of control
same,T/C,[10],97 % of control and 87 % of control
same,T/C,[15],92 % of control
C/C(Cc1cc(C)[nH]c(=S)n1)=N\NC(N)=O,T/C,[4],92 % of control
same,T/C,[6],92 % of control
COc1ccccc1NC(=O)N(CCCl)N=O,T/C,"dose: 0.8 mg/kg/injection, schedule: Q01DX001 (ip), vehicle: carboxymethylcellulose (CMC)",110 % of control
same,T/C,"dose: 1.5 mg/kg/injection, schedule: Q01DX001 (ip), vehicle: carboxymethylcellulose (CMC)",106 % of control
same,T/C,"dose: 1.5 mg/kg/injection, schedule: Q01DX009 (ip), vehicle: carboxymethylcellulose (CMC)",97 % of control
same,T/C,"dose: 3.0 mg/kg/injection, schedule: Q01DX001 (ip), vehicle: carboxymethylcellulose (CMC)",108 % of control
same,T/C,"dose: 3.5 mg/kg/injection, schedule: Q01DX009 (ip), vehicle: carboxymethylcellulose (CMC)",118 % of control and 124 % of control
same,T/C,"dose: 5.3 mg/kg/injection, schedule: Q01DX009 (ip), vehicle: carboxymethylcellulose (CMC)",165 % of control
same,T/C,"dose: 6.0 mg/kg/injection, schedule: Q01DX001 (ip), vehicle: carboxymethylcellulose (CMC)",117 % of control
same,T/C,"dose: 8.0 mg/kg/injection, schedule: Q01DX009 (ip), vehicle: carboxymethylcellulose (CMC)",166 % of control and 236 % of control
same,T/C,"dose: 12.0 mg/kg/injection, schedule: Q01DX009 (ip), vehicle: carboxymethylcellulose (CMC)",214 % of control and 247 % of control
same,T/C,"dose: 18.0 mg/kg/injection, schedule: Q01DX009 (ip), vehicle: carboxymethylcellulose (CMC)",116 % of control and 123 % of control
same,T/C,[2],100 % of control
